{
  "source": "paper PMC5762315",
  "about": "“Inhibition of polo-like kinase 4 (PLK4): a new therapeutic option for rhabdoid tumors and pediatric medulloblastoma” (Oncotarget, 2017)",
  "key": {"BT-12 AT/RT cells": {"test_system": "BT-12 AT/RT cells", "assay": "Confluency assay (IncuCyte ZOOM), BT-12", "type": "cell-based, human", "details": "increasing concentrations starting at 31.25nM, 48 hours, p-value=0.001", "method": "For further evaluation of the effect of the PLK4 inhibitor over tumor cell proliferation, confluency was measured over a 48 hour period. MON, BT-12, G401 and DAOY cells were plated in 96-well plates with a density of 6 x 10^4 per well. […] Confluency was monitored for 48 hours by taking phase contrast images every 2 hours and measured using an IncuCyte ZOOM system (Essen BioScience, USA). Experiments were performed in triplicates."}, "MUSK": {"target": "MUSK (Homo sapiens, UniProt O15146)", "assay": "Kinase activity screening (SelectScreen), MUSK", "type": "biochemical", "details": "10-point titration"}, "various kinases [1]": {"target": "various kinases (Homo sapiens, UniProt O00443)", "assay": "Adapta Universal Kinase Assay, panel of 486 biochemical kinase assays", "set-up": "% Inhibition Average: concentration or dose not given beside the values", "details": "PIK3C2A (PI3K-C2 alpha)"}, "various kinases [2]": {"target": "various kinases (Homo sapiens, UniProt P48426)", "sequence (P48426 whole entry)": "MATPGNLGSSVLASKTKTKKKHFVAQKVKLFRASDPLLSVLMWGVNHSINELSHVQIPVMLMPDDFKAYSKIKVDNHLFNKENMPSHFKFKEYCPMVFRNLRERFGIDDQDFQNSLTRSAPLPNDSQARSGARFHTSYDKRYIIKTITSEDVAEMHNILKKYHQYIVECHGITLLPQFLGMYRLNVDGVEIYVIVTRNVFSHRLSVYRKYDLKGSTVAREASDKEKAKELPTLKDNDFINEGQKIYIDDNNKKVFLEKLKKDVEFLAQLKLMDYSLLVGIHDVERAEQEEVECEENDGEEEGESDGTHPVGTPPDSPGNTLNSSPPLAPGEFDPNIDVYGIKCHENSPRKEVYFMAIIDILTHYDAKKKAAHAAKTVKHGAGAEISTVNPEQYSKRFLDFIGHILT", "assay": "Adapta Universal Kinase Assay, panel of 486 biochemical kinase assays", "set-up": "% Inhibition Average: concentration or dose not given beside the values", "details": "PIP4K2A"}, "various kinases [3]": {"target": "various kinases (Homo sapiens, UniProt O15111)", "assay": "Adapta Universal Kinase Assay, panel of 486 biochemical kinase assays", "set-up": "% Inhibition Average: concentration or dose not given beside the values", "details": "CHUK (IKK alpha)"}, "various kinases [4]": {"target": "various kinases (Homo sapiens, UniProt P48736)", "assay": "Adapta Universal Kinase Assay, panel of 486 biochemical kinase assays", "set-up": "% Inhibition Average: concentration or dose not given beside the values", "details": "PIK3CG (p110 gamma)"}, "various kinases [5]": {"target": "various kinases (Homo sapiens, UniProt Q99755)", "assay": "Adapta Universal Kinase Assay, panel of 486 biochemical kinase assays", "set-up": "% Inhibition Average: concentration or dose not given beside the values", "details": "PIP5K1A"}, "various kinases [6]": {"target": "various kinases (Homo sapiens, UniProt O75747)", "assay": "Adapta Universal Kinase Assay, panel of 486 biochemical kinase assays", "set-up": "% Inhibition Average: concentration or dose not given beside the values", "details": "PIK3C2G (PI3K-C2 gamma)"}, "various kinases [7]": {"target": "various kinases (Homo sapiens, UniProt Q5S007, I2020T)", "assay": "Adapta Universal Kinase Assay, panel of 486 biochemical kinase assays", "set-up": "% Inhibition Average: concentration or dose not given beside the values", "details": "LRRK2 I2020T"}, "various kinases [8]": {"target": "various kinases (Homo sapiens, UniProt Q9UBF8)", "assay": "Adapta Universal Kinase Assay, panel of 486 biochemical kinase assays", "set-up": "% Inhibition Average: concentration or dose not given beside the values", "details": "PI4KB (PI4K beta)"}, "various kinases [9]": {"target": "various kinases (Homo sapiens, UniProt P53355)", "assay": "Adapta Universal Kinase Assay, panel of 486 biochemical kinase assays", "set-up": "% Inhibition Average: concentration or dose not given beside the values", "details": "DAPK1"}, "various kinases [10]": {"target": "various kinases (Homo sapiens, UniProt P42338)", "sequence (P42338 whole entry)": "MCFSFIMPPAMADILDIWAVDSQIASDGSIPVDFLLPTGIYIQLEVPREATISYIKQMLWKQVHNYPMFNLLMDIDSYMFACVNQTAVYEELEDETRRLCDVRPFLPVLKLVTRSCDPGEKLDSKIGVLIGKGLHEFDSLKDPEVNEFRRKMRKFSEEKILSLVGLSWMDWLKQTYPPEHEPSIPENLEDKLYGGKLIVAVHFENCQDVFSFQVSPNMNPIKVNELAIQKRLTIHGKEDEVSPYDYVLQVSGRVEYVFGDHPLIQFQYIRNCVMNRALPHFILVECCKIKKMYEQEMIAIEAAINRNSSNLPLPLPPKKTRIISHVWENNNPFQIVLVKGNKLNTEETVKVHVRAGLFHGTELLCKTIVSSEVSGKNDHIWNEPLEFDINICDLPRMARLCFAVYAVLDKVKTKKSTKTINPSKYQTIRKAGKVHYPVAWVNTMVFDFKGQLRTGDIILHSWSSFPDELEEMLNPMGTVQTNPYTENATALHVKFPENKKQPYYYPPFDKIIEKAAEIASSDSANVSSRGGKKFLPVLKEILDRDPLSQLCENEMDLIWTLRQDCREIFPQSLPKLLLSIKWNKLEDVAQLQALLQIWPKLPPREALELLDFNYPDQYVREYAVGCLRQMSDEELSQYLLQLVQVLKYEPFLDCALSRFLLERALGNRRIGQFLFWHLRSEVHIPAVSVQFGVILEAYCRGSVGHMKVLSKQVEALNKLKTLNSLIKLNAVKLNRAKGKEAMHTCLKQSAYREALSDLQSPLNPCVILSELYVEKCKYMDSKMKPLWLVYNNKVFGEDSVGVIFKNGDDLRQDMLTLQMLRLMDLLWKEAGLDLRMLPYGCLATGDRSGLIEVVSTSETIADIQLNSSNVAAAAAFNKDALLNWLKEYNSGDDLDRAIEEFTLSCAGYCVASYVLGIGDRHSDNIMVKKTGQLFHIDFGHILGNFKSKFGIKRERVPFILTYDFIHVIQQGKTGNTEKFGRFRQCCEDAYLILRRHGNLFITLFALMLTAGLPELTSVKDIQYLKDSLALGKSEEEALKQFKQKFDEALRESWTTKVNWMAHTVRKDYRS", "assay": "Adapta Universal Kinase Assay, panel of 486 biochemical kinase assays", "set-up": "% Inhibition Average: concentration or dose not given beside the values"}, "various kinases [11]": {"target": "various kinases (Homo sapiens, UniProt O60331)", "sequence (O60331 whole entry)": "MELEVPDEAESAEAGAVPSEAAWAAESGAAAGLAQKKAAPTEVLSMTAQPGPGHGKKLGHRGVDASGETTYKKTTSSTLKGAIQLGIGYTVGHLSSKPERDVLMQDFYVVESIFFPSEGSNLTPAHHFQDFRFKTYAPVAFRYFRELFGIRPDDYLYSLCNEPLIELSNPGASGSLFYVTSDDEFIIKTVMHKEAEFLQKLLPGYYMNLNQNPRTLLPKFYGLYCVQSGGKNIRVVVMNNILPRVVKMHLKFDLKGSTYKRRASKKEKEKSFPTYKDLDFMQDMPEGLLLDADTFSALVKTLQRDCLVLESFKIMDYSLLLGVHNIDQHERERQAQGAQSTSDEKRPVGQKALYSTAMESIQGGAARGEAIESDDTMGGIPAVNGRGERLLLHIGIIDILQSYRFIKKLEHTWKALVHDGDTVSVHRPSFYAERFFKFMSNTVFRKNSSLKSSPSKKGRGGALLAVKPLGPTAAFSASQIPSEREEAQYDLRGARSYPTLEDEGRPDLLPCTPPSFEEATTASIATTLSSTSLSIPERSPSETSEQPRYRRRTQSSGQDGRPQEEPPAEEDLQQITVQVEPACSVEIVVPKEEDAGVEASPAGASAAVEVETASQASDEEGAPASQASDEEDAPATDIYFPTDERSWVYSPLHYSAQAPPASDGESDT", "assay": "Adapta Universal Kinase Assay, panel of 486 biochemical kinase assays", "set-up": "% Inhibition Average: concentration or dose not given beside the values", "details": "kinase PIP5K1C; Adapta"}, "various kinases [12]": {"target": "various kinases (Homo sapiens, UniProt O00750)", "assay": "Adapta Universal Kinase Assay, panel of 486 biochemical kinase assays", "set-up": "% Inhibition Average: concentration or dose not given beside the values", "details": "PIK3C2B (PI3K-C2 beta)"}, "various kinases [13]": {"target": "various kinases (Homo sapiens, UniProt P42336)", "sequence (P42336 whole entry)": "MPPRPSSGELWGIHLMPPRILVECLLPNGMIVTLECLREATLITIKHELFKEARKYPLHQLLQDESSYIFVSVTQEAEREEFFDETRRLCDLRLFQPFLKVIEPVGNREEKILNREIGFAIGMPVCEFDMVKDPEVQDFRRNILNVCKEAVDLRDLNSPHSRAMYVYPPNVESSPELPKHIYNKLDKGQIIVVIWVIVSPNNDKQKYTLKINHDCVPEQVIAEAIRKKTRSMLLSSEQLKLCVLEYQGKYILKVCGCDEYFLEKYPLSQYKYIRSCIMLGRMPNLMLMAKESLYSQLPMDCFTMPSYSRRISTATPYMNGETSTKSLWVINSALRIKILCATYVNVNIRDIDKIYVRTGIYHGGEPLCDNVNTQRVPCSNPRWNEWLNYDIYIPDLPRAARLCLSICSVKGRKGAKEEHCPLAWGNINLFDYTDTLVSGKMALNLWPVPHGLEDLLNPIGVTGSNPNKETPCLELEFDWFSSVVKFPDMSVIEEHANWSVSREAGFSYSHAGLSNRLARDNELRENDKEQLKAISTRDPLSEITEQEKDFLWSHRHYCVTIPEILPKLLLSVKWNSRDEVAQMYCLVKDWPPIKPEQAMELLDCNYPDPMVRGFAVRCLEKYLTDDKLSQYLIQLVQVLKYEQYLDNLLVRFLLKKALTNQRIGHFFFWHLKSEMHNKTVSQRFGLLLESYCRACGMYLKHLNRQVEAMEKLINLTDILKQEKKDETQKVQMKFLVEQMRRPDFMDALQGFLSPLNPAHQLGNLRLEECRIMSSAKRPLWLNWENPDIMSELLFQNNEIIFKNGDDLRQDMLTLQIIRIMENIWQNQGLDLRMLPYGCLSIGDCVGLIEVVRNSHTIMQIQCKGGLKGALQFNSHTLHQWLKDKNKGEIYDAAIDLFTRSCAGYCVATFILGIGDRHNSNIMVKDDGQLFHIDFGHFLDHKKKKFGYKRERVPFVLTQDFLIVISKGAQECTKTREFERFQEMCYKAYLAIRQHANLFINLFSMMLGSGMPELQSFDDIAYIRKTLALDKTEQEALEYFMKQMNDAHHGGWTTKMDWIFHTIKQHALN", "assay": "Adapta Universal Kinase Assay, panel of 486 biochemical kinase assays", "set-up": "% Inhibition Average: concentration or dose not given beside the values"}, "various kinases [14]": {"target": "various kinases (Homo sapiens, UniProt Q5S007, R1441C)", "assay": "Adapta Universal Kinase Assay, panel of 486 biochemical kinase assays", "set-up": "% Inhibition Average: concentration or dose not given beside the values", "details": "LRRK2 R1441C"}, "various kinases [15]": {"target": "various kinases (Homo sapiens, UniProt O60285)", "sequence (O60285 whole entry)": "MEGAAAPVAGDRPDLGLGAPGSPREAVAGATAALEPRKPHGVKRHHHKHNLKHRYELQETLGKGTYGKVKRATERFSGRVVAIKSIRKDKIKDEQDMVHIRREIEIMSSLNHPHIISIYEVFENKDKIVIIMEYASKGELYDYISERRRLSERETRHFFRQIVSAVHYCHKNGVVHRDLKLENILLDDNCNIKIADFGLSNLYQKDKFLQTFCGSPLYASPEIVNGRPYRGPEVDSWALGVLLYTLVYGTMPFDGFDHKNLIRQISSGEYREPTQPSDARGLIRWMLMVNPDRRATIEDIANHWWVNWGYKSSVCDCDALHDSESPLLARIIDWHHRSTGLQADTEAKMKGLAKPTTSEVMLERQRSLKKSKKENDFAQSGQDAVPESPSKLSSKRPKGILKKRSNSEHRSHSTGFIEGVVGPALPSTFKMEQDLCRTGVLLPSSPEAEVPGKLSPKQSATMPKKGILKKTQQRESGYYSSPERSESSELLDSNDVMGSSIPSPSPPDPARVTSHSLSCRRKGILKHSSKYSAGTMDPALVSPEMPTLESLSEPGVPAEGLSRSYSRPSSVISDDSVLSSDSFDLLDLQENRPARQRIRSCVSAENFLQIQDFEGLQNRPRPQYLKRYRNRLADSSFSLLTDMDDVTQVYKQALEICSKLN", "assay": "Adapta Universal Kinase Assay, panel of 486 biochemical kinase assays", "set-up": "% Inhibition Average: concentration or dose not given beside the values", "details": "NUAK1 (ARK5)"}, "various kinases [16]": {"target": "various kinases (Homo sapiens, UniProt O00329)", "assay": "Adapta Universal Kinase Assay, panel of 486 biochemical kinase assays", "set-up": "% Inhibition Average: concentration or dose not given beside the values", "details": "PIK3CD/PIK3R1 (p110 delta/p85 alpha)"}, "various kinases [17]": {"target": "various kinases (Homo sapiens, UniProt Q14012)", "sequence (Q14012 whole entry)": "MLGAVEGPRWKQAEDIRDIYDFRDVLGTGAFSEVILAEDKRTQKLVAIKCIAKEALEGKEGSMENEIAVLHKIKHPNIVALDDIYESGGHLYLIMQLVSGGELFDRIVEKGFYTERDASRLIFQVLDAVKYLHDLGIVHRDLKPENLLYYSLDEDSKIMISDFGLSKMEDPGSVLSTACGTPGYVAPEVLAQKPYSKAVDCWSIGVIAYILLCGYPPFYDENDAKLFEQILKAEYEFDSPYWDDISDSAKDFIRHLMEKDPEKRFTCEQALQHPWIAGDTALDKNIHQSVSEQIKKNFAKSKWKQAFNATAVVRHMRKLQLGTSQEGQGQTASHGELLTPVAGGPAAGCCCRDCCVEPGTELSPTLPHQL", "assay": "Adapta Universal Kinase Assay, panel of 486 biochemical kinase assays", "set-up": "% Inhibition Average: concentration or dose not given beside the values", "details": "CAMK1 (CaMK1)"}, "various kinases [18]": {"target": "various kinases (Homo sapiens, UniProt Q9NYA1)", "sequence (Q9NYA1 whole entry)": "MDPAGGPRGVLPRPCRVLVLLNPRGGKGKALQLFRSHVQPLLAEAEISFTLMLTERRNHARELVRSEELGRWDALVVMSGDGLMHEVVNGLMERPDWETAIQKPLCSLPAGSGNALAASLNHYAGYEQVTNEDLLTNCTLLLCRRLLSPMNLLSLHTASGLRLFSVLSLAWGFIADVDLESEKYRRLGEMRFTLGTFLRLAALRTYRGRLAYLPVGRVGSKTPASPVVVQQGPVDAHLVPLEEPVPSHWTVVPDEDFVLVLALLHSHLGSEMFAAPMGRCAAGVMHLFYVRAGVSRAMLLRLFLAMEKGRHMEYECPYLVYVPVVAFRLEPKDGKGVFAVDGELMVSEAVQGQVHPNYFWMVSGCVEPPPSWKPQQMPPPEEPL", "assay": "Adapta Universal Kinase Assay, panel of 486 biochemical kinase assays", "set-up": "% Inhibition Average: concentration or dose not given beside the values", "details": "kinase SPHK1; Adapta"}, "various kinases [19]": {"target": "various kinases (Homo sapiens, UniProt P42336, E545K)", "sequence (P42336 whole entry E545K)": "as the sequence (P42336 whole entry) above, with E545K counted along it", "assay": "Adapta Universal Kinase Assay, panel of 486 biochemical kinase assays", "set-up": "% Inhibition Average: concentration or dose not given beside the values", "details": "PIK3CA E545K/PIK3R1 (p110 alpha E545K/p85 alpha)"}, "various kinases [20]": {"target": "various kinases (Homo sapiens, UniProt P50750)", "sequence (P50750 whole entry)": "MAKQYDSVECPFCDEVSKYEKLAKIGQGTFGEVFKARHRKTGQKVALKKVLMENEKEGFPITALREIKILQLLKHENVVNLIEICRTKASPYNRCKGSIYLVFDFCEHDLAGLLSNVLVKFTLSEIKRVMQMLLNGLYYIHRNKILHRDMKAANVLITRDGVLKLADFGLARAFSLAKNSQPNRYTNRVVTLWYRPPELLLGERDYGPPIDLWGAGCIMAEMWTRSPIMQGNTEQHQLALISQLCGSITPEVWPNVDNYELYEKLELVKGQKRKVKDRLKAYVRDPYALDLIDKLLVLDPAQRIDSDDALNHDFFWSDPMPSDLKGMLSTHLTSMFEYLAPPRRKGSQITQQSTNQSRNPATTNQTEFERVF", "assay": "Adapta Universal Kinase Assay, panel of 486 biochemical kinase assays", "set-up": "% Inhibition Average: concentration or dose not given beside the values", "details": "CDK9/cyclin T1"}, "various kinases [21]": {"target": "various kinases (Homo sapiens, UniProt P51617)", "assay": "Adapta Universal Kinase Assay, panel of 486 biochemical kinase assays", "set-up": "% Inhibition Average: concentration or dose not given beside the values", "details": "IRAK1"}, "various kinases [22]": {"target": "various kinases (Homo sapiens, UniProt P42356)", "assay": "Adapta Universal Kinase Assay, panel of 486 biochemical kinase assays", "set-up": "% Inhibition Average: concentration or dose not given beside the values", "details": "PI4KA (PI4K alpha)"}, "various kinases [23]": {"target": "various kinases (Homo sapiens, UniProt Q8TCG2)", "assay": "Adapta Universal Kinase Assay, panel of 486 biochemical kinase assays", "set-up": "% Inhibition Average: concentration or dose not given beside the values", "details": "PI4K2B (PI4K2 beta)"}, "various kinases [24]": {"target": "various kinases (Homo sapiens, UniProt Q9BTU6)", "assay": "Adapta Universal Kinase Assay, panel of 486 biochemical kinase assays", "set-up": "% Inhibition Average: concentration or dose not given beside the values", "details": "PI4K2A (PI4K2 alpha)"}, "various kinases [25]": {"target": "various kinases (Homo sapiens, UniProt Q8NEB9)", "assay": "Adapta Universal Kinase Assay, panel of 486 biochemical kinase assays", "set-up": "% Inhibition Average: concentration or dose not given beside the values", "details": "PIK3C3 (hVPS34)"}, "D283 cells": {"test_system": "D283 cells", "assay": "Colony formation assay, D283", "type": "cell-based, human", "details": "50nM", "experimental": "For proliferation assay DAOY was plated with 5 x 10^4 cells per well and D283 was plated with 5 x 10^5 cells per well."}},
  "note": "“And” between values parts separate entries of the source, which are not always exact repeats. Equal values may be shown once.",
  "data": [
    {"smiles": "COc1ccc2c(c1)[C@]1(C[C@H]1c1ccc3c(/C=C/c4ccc(CN5C[C@@H](C)O[C@@H](C)C5)cc4)n[nH]c3c1)C(=O)N2", "note": "[CFI-400945]", "values": [
      {"measurement": "FC, delay in reaching confluency", "setting": "BT-12 AT/RT cells", "result": 1.89},
      {"measurement": "IC50", "setting": "MUSK", "result": 48.7, "unit": "nM"},
      {"measurement": "% Inhibition", "setting": "various kinases [1]", "result": "0% and 1%"},
      {"measurement": "% Inhibition", "setting": "various kinases [2]", "result": "5% and 10%"},
      {"measurement": "% Inhibition", "setting": "various kinases [3]", "result": -11, "unit": "%"},
      {"measurement": "% Inhibition", "setting": "various kinases [4]", "result": "-2% and -5%"},
      {"measurement": "% Inhibition", "setting": "various kinases [5]", "result": "-3% and 4%"},
      {"measurement": "% Inhibition", "setting": "various kinases [6]", "result": "-1% and -6%"},
      {"measurement": "% Inhibition", "setting": "various kinases [7]", "result": "44% and 46%"},
      {"measurement": "% Inhibition", "setting": "various kinases [8]", "result": "3% and 11%"},
      {"measurement": "% Inhibition", "setting": "various kinases [9]", "result": "2% and 0%"},
      {"measurement": "% Inhibition", "setting": "various kinases [10]; PIK3CB/PIK3R1 (p110 beta/p85 alpha)", "result": "4% and 3%"},
      {"measurement": "% Inhibition", "setting": "various kinases [10]; PIK3CB/PIK3R2 (p110 beta/p85 beta)", "result": "12% and 6%"},
      {"measurement": "% Inhibition Average", "setting": "various kinases [11]", "result": 8, "unit": "%"},
      {"measurement": "% Inhibition Duplicate #1", "setting": "various kinases [11]", "result": 8, "unit": "%"},
      {"measurement": "% Inhibition Duplicate #2", "setting": "various kinases [11]", "result": 8, "unit": "%"},
      {"measurement": "% Inhibition", "setting": "various kinases [12]", "result": "2% and -1%"},
      {"measurement": "% Inhibition", "setting": "various kinases [13]; PIK3CA/PIK3R1 (p110 alpha/p85 alpha)", "result": "-9% and -6%"},
      {"measurement": "% Inhibition", "setting": "various kinases [13]; PIK3CA/PIK3R3 (p110 alpha/p55 gamma)", "result": "-2% and 6%"},
      {"measurement": "% Inhibition", "setting": "various kinases [14]", "result": "35% and 42%"},
      {"measurement": "% Inhibition", "setting": "various kinases [15]", "result": "66% and 65%"},
      {"measurement": "IC50", "setting": "various kinases [15]", "result": 272, "unit": "nM"},
      {"measurement": "% Inhibition", "setting": "various kinases [16]", "result": "-2% and -8%"},
      {"measurement": "% Inhibition", "setting": "various kinases [17]", "result": "21% and 24%"},
      {"measurement": "% Inhibition Average", "setting": "various kinases [18]", "result": -12, "unit": "%"},
      {"measurement": "% Inhibition Duplicate #1", "setting": "various kinases [18]", "result": -11, "unit": "%"},
      {"measurement": "% Inhibition Duplicate #2", "setting": "various kinases [18]", "result": -14, "unit": "%"},
      {"measurement": "% Inhibition", "setting": "various kinases [19]", "result": "-5% and -9%"},
      {"measurement": "% Inhibition", "setting": "various kinases [20]", "result": "17% and 14%"},
      {"measurement": "% Inhibition", "setting": "various kinases [21]", "result": "-8% and -12%"},
      {"measurement": "% Inhibition", "setting": "various kinases [22]", "result": "12% and 7%"},
      {"measurement": "% Inhibition", "setting": "various kinases [23]", "result": "-13% and -11%"},
      {"measurement": "% Inhibition", "setting": "various kinases [24]", "result": "-1% and 2%"},
      {"measurement": "% Inhibition", "setting": "various kinases [25]", "result": "8% and 15%"},
      {"measurement": "colony formation", "setting": "D283 cells", "result": "Complete inhibition"}
    ]}
  ]
}
